In ChEMBL document CHEMBL4041532, “Zinc-Metalloproteinase Inhibitors: Evaluation of the Complex Role Played by the Zinc-Binding Group on Potency and Selectivity” (J Med Chem, 2017):
Activity calls are given as the source filed them. The rule behind the calls is not given here.

Tests used:
Collagenase 3 = Collagenase 3 (Homo sapiens, UniProt P45452); assay: Inhibition of human MMP13 catalytic domain using Mca-Pro-Leu-Gly-Leu-Dpa-Ala-Arg-NH2 fluorogenic substrate by spectrophotometric analysis
[1] = biological target: Macrophage metalloelastase (Homo sapiens) (UniProt P39900); assay: Ratio of Ki for human MMP12 catalytic domain (Met105 to Lys263 residues) at pH 9.5 to Ki for human MMP12 catalytic domain (Met105 to Lys263 residues) at pH 6
Chain of Macrophage metalloelastase (Homo sapiens) (P39900 106-470 limits assumed): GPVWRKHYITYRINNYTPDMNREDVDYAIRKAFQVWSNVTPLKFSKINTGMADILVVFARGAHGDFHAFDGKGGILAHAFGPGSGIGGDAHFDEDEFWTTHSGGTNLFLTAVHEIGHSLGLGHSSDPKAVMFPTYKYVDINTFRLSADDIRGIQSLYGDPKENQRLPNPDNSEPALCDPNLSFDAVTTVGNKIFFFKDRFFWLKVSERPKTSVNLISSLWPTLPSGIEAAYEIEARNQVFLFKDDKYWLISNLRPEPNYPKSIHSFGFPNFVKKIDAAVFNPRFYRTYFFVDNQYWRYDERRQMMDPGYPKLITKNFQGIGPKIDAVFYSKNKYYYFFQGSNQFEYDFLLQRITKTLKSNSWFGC

[2] = biological target: 72 kDa type IV collagenase (Homo sapiens) (UniProt P08253); assay: Inhibition of human MMP2 catalytic domain using Mca-Pro-Leu-Gly-Leu-Dpa-Ala-Arg-NH2 fluorogenic substrate by spectrophotometric analysis
Chain of 72 kDa type IV collagenase (Homo sapiens) (P08253 110-660 limits assumed): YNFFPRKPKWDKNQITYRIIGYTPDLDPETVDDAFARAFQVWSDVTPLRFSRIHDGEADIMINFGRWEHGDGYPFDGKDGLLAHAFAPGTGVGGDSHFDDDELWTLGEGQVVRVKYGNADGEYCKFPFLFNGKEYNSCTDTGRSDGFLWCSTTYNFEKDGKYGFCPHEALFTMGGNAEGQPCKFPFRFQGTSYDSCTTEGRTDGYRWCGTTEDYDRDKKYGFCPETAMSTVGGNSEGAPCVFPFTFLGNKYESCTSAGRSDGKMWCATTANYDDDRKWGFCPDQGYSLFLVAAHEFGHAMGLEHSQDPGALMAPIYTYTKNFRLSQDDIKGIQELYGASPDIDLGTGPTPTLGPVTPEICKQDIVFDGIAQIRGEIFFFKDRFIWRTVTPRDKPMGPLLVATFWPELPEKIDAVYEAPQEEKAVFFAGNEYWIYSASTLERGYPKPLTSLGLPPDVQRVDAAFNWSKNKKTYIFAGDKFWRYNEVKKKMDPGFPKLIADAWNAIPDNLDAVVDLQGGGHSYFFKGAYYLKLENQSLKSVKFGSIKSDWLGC

Stromelysin-2 = Stromelysin-2 (Homo sapiens, UniProt P09238); assay: Inhibition of human MMP10 catalytic domain using Mca-Pro-Leu-Gly-Leu-Dpa-Ala-Arg-NH2 fluorogenic substrate by spectrophotometric analysis
Chain of Stromelysin-2 (P09238 whole entry, the tested form may be a part): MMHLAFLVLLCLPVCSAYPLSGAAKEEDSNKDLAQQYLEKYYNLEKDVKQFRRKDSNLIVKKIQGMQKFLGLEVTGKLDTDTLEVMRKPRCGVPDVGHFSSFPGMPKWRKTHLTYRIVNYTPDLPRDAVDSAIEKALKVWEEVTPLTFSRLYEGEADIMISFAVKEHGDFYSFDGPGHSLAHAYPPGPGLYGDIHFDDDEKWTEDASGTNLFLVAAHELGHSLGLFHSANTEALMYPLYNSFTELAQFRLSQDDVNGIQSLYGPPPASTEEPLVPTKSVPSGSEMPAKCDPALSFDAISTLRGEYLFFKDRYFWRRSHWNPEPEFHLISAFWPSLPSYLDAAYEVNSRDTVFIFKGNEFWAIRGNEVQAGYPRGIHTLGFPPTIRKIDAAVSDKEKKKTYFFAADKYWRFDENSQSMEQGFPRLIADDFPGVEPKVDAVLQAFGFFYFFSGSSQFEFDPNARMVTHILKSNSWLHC

SMILES	Activity (Collagenase 3)	Ratio Ki [1]	Activity [2]	Ki (Collagenase 3)	Ki (Stromelysin-2)
NC(=O)[C@H](CCC(=O)O)NC(=O)[C@H](CCC(=O)O)NC(=O)[C@@H](CC(=O)O)Cc1cc(-c2ccc(-c3cccc(Cl)c3)cc2)no1	Active	980	Active		
NC(=O)[C@H](CCC(=O)O)NC(=O)[C@H](CCC(=O)O)NC(=O)[C@@H](CC(=O)NO)Cc1cc(-c2ccc(-c3cccc(Cl)c3)cc2)no1				0.008 nM	1.4 nM
NC(=O)[C@H](CCC(=O)O)NC(=O)[C@H](CCC(=O)O)NC(=O)[C@H](Cc1cc(-c2ccc(-c3cccc(Cl)c3)cc2)no1)CP(=O)(O)c1ccc(Br)cc1		1100		139 nM	149 nM
